Laboratory results: paper PMC9238271, “The quorum sensing peptide EntF* promotes colorectal cancer metastasis in mice: a new factor in the host-microbiome interaction” (BMC Biology, 2022)

Experiments:
[1] = tested on: E-cadherin expression in HT-29 cells; test: Western blot of E-cadherin expression, HT-29 cells; assay type: cell-based
Experimental: (§1) HCT-8, HT-29, and HT-116 cells were grown in DMEM medium supplied with 10% fetal bovine serum (FBS) and 1% penicillin-streptomycin. Caco-2 cells were grown in DMEM medium supplied with 10% FBS, 1% non-essential amino acid NEAA), and 1% penicillin-streptomycin. Cells were cultured at 37 °C and 5% CO2. As cells reached confluency, they were detached using 0.25% Trypsin-EDTA.
(§2) For Western blot analyses, HCT-8 (n = 15), HCT-116 (n = 12), Caco-2 (n = 6), and HT-29 (n = 12) cells were seeded in 6-well plates at a density of 1 × 10^6 cells/well. Twenty-four hours after seeding, all cell lines were treated with 1 μM EntF* or a placebo solution. HCT-8 cells were also tested for responsiveness to 1 μM EntF* synthetic alanine-derived analogs. For antagonist activity analysis, HCT-8 cells were treated with 1 μM Nef-M1 or 1 μM EntF*A1 alone or in combination with 500 nM EntF*. After 24 h, cells were detached from the surface and lysed in RIPA buffer (Thermo Scientific). Protein concentration was determined using the modified Lowry protein assay kit (Thermo Scientific), according to the manufacturer’s instructions. Protein samples were diluted to the same concentration (4 μg/μL) with water and diluted again 1:1 using 2x Laemmli buffer. After that, samples were boiled for 5 min at 95 °C to denature proteins and centrifuged for 5 min at 16,000g; supernatants were used for Western blot analyses. Equal amounts of total protein (20 μg/lane) were separated by SDS-PAGE on an Any kD^TM gel (Bio-Rad ) and then transferred to a PVDF membrane. Before incubation with antibodies, non-specific binding sites on the membranes were blocked using 5% skimmed milk solution (1 h). TBS buffer with 0.05% Tween 20 was used for all washing steps. Membranes were incubated overnight at 4 °C with an anti-E-cadherin primary antibody (1/1000 dilution). An HRP-conjugated anti-rabbit antibody (1/2000 dilution, 1 h incubation) was used for chemiluminescent detection. Membranes were incubated with the detection substrate for 5 min and signal detection was performed using the ChemiDoc EZ imager and Image Lab software (Bio-Rad). […]

[2] = Serum kinetic profile and daily EntF* exposure after i.p. injection; assay type: in vivo, female Swiss nu/nu mice
Experimental: Fifty microliters of serum were mixed with 150 μL 0.5% formic acid in acetonitrile. After sonication for 5 min, samples were vortexed for 5 s, then heated for 30 s at 100 °C. The solution was vortexed and centrifuged for 20 min at 20,000g at 4 °C. The supernatant was purified using solid phase extraction (SPE) on HyperSep C18 plates (Thermo Fisher Scientific, Belgium), previously conditioned with acetonitrile and equilibrated with 75% acetonitrile in water, containing 0.375% formic acid. After loading 150 μL of each sample, 120 μL eluent were collected and organic solvents evaporated using nitrogen (1 L/min) for 5 min. The resulting samples were further diluted with 30 μL of BSA-based anti-adsorption solution, and analyzed by LC-MS.
EntF* was detected and quantified on a Waters Acquity® UPLC H-class system, connected to a Waters Xevo™ TQ-S triple quadrupole mass spectrometer with electrospray ionization (operated in positive ionization mode). Autosampler tray and column oven were kept at 10 ± 5 °C and 60 ± 5 °C, respectively. Chromatographic separation was achieved on a Waters Acquity® UPLC BEH Peptide C18 column (300 Å, 1.7 μm, 2.1 mm × 100 mm). The mobile phases consisted of 93/2/5 water/acetonitrile/DMSO (V/V/V) containing 0.1% formic acid (mobile phase A) and 2/93/5 water/acetonitrile/DMSO (V/V/V) containing 0.1% formic acid (mobile phase B), and the flow rate was set to 0.5 mL/min. A 10-μL aliquot from each sample was injected. The gradient program started with 80% of mobile phase A for 1 min, followed by a linear gradient to 40% of mobile phase A for 3.5 min. Gradient was then changed to 14.2% mobile phase A at 5 min, followed by a 1 min equilibration, before starting conditions were applied. EntF* retention time was between 4.25 and 4.45 min.
To calculate daily peptide exposure, female Swiss nu/nu mice (n = 14) were i.p. injected with 25 μL of 100 μM EntF*, their serum withdrawn at different time points and analyzed by LC1-MS1. A distribution and early exponential phase (α, 0-30 min), followed by a terminal elimination phase (β, 30–180 min) could be distinguished. The exposure was determined over a period of 24 h (x) as follows: ExposurenMxmin=∫030Ae^-αt+∫30xBe^-βt .

[3] = tested on: E-cadherin expression in Caco-2 cells; test: Western blot of E-cadherin expression, Caco-2 cells; assay type: cell-based
Experimental: as §1, §2

CC(C)C[C@@H]1NC(=O)[C@H](CO)NC(=O)[C@H](Cc2ccccc2)NC(=O)[C@H](C(C)C)NC(=O)[C@@H](NC(=O)[C@H](CCC(=O)O)NC(=O)[C@@H](NC(=O)[C@H](CC(C)C)NC(=O)[C@H](CC(N)=O)NC(=O)[C@@H](N)CO)C(C)C)CSSC[C@@H](C(=O)N[C@@H](CC(N)=O)C(=O)O)NC(=O)[C@H](CCCCN)NC(=O)[C@H](CCCCN)NC(=O)[C@H](Cc2ccccc2)NC1=O (single isomer, unassigned) [EntF*]
effect on E-cadherin expression in HT-29 cells ([1]; 1 μM EntF* or CXCL12, 24 h, n = 12): statistically significant reduction
Relative E-cadherin expression, average ([1]; HT-29 cells, average of n = 12): 73.7
Daily exposure during CRC experiment, Exposure (nM*min), Distribution phase ([2]; after 100 nmol kg-1 EntF* i.p. injection): 74.91 nM·min
Distribution phase, serum level, Average ([2]; after 100 nmol kg-1 EntF* i.p. injection, 5 min, mean of n = 4): 4.2292
Distribution phase, serum level, Average ([2]; after 100 nmol kg-1 EntF* i.p. injection, 10 min, mean of n = 4): 2.596
Distribution phase, serum level, Average ([2]; after 100 nmol kg-1 EntF* i.p. injection, 15 min, mean of n = 4): 2.427
Elimination phase, serum level, Average ([2]; after 100 nmol kg-1 EntF* i.p. injection, 60 min, mean of n = 4): 0.2851
Elimination phase, serum level, Average ([2]; after 100 nmol kg-1 EntF* i.p. injection, 120 min, mean of n = 4): 0.389
level at time molar at 0.5 h ([2]; female, Swiss nu/nu, mouse, serum, ip, after 100 nmol kg-1 EntF* i.p. injection, 30 min, mean of n = 4, read-out: Distribution phase / Elimination phase, serum level, Average): 0.854 nM
level at time molar at 3 h ([2]; female, Swiss nu/nu, mouse, serum, ip, after 100 nmol kg-1 EntF* i.p. injection, 180 min, mean of n = 4, read-out: Elimination phase, serum level, Average): 0.195 nM
EntF* serum concentration ([2]; serum, 5 min after i.p. injection, Xgem (mean of 4 values)): 4.2292 nM
EntF* serum concentration ([2]; serum, 10 min after i.p. injection, Xgem (mean of 4 values)): 2.5962 nM
EntF* serum concentration ([2]; serum, 15 min after i.p. injection, Xgem (mean of 4 values)): 2.4271 nM
EntF* serum concentration ([2]; serum, 30 min after i.p. injection, Xgem (mean of 4 values)): 0.8544 nM
EntF* serum concentration ([2]; serum, 60 min after i.p. injection, Xgem (mean of 4 values)): 0.2851 nM
EntF* serum concentration ([2]; serum, 120 min after i.p. injection, Xgem (mean of 4 values)): 0.3890 nM
EntF* serum concentration ([2]; serum, 180 min after i.p. injection, replicate X1,2): 0.4699 nM
EntF* serum concentration ([2]; serum, 180 min after i.p. injection, replicate X2,2): 0.5336 nM
effect on E-cadherin expression in Caco-2 cells ([3]; 1 μM EntF* or CXCL12, 24 h, n = 6): statistically significant reduction
Relative E-cadherin in different cell lines, Average ([3]; CaCo-2 cells, average of n = 6): 40.1
